Experiments:
Cathepsin S [1] = target: Cathepsin S (Rattus norvegicus, UniProt Q02765); test: Inhibition of rat spleen cathepsin S; type: tissue-based
Cathepsin K [2] = target: T1, Cathepsin K (Homo sapiens, UniProt P43235); test: Inhibition of human cathepsin K
T1 sequence (P43235 whole entry): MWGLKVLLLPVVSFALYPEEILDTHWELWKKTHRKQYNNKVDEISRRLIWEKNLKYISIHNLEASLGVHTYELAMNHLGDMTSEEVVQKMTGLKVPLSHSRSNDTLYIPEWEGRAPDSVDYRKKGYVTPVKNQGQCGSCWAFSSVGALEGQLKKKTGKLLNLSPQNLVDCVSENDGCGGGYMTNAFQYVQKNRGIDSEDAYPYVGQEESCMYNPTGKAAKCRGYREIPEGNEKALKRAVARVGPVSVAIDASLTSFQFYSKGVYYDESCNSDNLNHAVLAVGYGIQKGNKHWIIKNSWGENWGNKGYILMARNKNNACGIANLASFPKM

Cathepsin B [3] = target: Cathepsin B (Homo sapiens, UniProt P07858); test: Inhibition of human cathepsin B
Cathepsin K [4] = target: T2, Cathepsin K (Mus musculus, UniProt P55097); test: Inhibition of mouse recombinant cathepsin K
T2 sequence (P55097 whole entry): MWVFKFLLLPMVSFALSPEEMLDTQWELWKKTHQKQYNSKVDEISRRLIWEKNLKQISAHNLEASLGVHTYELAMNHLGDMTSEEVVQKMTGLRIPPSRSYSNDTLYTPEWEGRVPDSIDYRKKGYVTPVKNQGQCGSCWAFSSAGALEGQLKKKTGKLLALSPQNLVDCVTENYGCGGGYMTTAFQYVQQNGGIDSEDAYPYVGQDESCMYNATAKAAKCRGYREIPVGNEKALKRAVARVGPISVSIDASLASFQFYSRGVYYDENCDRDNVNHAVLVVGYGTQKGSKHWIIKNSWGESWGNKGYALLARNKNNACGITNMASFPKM

Cathepsin S [5] = target: Cathepsin S (Homo sapiens, UniProt P25774); test: Inhibition of human cathepsin S
Cathepsin S [6] = target: Cathepsin S (Mus musculus, UniProt O70370); test: Inhibition of mouse recombinant cathepsin S
Cathepsin B [7] = target: Cathepsin B (Mus musculus, UniProt P10605); test: Inhibition of mouse recombinant cathepsin B
Procathepsin L [8] = target: T3, Procathepsin L (Rattus norvegicus, UniProt P07154); test: Inhibition of rat liver lysosomal cathepsin L
T3 sequence (P07154 whole entry): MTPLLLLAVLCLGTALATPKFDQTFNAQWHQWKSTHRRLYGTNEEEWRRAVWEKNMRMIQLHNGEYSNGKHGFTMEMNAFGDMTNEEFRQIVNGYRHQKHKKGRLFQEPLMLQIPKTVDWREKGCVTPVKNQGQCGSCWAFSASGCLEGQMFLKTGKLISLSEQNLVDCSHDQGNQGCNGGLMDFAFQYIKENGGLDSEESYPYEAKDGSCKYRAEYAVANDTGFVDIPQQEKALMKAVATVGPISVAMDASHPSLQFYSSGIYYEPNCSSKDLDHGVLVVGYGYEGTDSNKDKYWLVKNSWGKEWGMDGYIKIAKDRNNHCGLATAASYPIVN

Cathepsin B [9] = target: Cathepsin B (Rattus norvegicus, UniProt P00787); test: Inhibition of rat liver lysosomal cathepsin B
[10] = Inhibition of antigen presentation in mouse B cells; type: functional, cell-based
Procathepsin L [11] = target: Procathepsin L (Homo sapiens, UniProt P07711); test: Inhibition of human cathepsin L
Procathepsin L [12] = target: T4, Procathepsin L (Mus musculus, UniProt P06797); test: Inhibition of mouse recombinant cathepsin L
T4 sequence (P06797 whole entry): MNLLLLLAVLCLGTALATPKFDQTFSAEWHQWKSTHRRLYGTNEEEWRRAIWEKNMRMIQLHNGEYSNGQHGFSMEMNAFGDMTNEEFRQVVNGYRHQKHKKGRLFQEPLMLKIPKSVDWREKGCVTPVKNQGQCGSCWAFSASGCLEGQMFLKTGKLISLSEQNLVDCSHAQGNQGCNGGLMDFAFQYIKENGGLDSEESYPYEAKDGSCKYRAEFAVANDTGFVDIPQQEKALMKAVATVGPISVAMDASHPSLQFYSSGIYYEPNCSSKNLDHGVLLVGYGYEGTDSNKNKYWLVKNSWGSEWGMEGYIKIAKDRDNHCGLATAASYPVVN

Rattus norvegicus = test: Half life in po dosed Sprague-Dawley rat administered in 1:1 inwitor/tween 80 solution; type: ADME, organism-based; details: in vivo
[13] = Cmax in po dosed Sprague-Dawley rat administered in 1:1 inwitor/tween 80 solution; type: ADME, organism-based; set-up: route oral; details: in vivo
[14] = Bioavailability in po dosed Sprague-Dawley rat administered in 1:1 inwitor/tween 80 solution; type: ADME, organism-based; details: in vivo
[15] = Bioavailability in Sprague-Dawley rat; type: ADME, organism-based; details: in vivo
[16] = Cmax in Sprague-Dawley rat; type: ADME, organism-based; details: in vivo
[17] = Half life in Sprague-Dawley rat; type: ADME, organism-based; details: in vivo
Hepatocyte = test: Metabolic stability in rat hepatocytes after 2 hrs; type: ADME, cell-based

Sequence of Cathepsin B (Rattus norvegicus, UniProt P00787) (P00787 whole entry): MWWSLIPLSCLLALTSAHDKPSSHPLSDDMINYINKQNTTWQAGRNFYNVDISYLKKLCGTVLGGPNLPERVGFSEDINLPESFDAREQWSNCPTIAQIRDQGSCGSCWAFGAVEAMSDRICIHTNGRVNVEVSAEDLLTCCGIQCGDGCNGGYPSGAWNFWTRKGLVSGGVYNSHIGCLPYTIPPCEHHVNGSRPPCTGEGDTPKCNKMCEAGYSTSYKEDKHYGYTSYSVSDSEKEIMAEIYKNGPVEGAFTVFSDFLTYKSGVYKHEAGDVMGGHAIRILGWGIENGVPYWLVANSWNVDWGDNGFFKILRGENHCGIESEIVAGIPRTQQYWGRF
Sequence of Cathepsin B (Mus musculus, UniProt P10605) (P10605 whole entry): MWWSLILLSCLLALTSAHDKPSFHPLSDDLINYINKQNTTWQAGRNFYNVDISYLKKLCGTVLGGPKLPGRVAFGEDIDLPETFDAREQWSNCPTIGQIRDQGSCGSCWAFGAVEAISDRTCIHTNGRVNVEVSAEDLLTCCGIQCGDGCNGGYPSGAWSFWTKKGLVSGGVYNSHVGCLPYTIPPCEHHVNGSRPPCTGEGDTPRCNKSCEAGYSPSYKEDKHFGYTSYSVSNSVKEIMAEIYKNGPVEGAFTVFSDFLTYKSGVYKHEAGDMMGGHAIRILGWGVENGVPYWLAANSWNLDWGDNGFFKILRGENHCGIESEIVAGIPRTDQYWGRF
Sequence of Cathepsin S (Rattus norvegicus, UniProt Q02765) (Q02765 whole entry): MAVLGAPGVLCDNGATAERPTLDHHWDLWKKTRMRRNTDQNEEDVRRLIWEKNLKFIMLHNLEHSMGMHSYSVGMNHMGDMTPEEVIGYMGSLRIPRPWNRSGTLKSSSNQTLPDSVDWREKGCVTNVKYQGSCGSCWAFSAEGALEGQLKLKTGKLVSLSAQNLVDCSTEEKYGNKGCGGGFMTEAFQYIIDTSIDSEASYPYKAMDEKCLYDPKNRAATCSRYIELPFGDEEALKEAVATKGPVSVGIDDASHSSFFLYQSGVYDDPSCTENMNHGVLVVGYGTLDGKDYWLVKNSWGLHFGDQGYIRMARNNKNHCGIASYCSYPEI
Sequence of Procathepsin L (Homo sapiens, UniProt P07711) (P07711 whole entry): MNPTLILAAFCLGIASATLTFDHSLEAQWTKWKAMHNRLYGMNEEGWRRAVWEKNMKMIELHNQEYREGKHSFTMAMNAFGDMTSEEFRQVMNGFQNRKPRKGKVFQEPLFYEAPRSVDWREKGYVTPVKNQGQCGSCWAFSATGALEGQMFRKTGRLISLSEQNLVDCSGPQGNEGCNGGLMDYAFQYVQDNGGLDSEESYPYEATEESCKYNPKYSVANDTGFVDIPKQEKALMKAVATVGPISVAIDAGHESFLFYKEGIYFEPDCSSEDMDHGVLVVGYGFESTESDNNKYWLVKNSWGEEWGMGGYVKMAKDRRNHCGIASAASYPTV
Sequence of Cathepsin S (Homo sapiens, UniProt P25774) (P25774 whole entry): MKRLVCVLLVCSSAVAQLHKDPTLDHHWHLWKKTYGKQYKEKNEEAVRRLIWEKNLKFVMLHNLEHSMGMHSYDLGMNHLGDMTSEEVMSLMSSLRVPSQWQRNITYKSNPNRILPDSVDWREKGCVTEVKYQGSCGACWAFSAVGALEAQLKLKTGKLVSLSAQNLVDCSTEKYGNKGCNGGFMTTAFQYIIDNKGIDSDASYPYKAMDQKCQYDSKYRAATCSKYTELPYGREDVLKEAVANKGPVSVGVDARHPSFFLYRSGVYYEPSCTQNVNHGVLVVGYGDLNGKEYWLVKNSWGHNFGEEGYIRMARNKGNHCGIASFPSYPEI
Sequence of Cathepsin S (Mus musculus, UniProt O70370) (O70370 whole entry): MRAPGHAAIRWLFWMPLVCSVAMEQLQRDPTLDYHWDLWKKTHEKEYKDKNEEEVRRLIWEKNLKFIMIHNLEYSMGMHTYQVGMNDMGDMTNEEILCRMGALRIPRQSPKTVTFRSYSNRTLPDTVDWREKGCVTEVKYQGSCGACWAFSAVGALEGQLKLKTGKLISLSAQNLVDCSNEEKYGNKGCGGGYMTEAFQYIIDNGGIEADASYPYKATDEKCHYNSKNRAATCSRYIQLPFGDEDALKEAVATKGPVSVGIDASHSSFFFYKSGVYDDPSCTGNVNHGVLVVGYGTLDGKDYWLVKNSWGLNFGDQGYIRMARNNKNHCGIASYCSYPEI

IC50 (Cathepsin S [1]) [µM] | IC50 (Cathepsin K [2]) [µM] | IC50 (Cathepsin B [3]) [µM] | IC50 (Cathepsin K [4]) [µM] | IC50 (Cathepsin S [5]) [µM] | IC50 (Cathepsin S [6]) [µM] | IC50 (Cathepsin B [7]) [µM] | IC50 (Procathepsin L [8]) [µM] | IC50 (Cathepsin B [9]) [µM] | IC50 [10] [µM] | IC50 (Procathepsin L [11]) [µM] | IC50 (Procathepsin L [12]) [µM] | t1/2 (Rattus norvegicus) [h] | Cmax [13] [nM] | bioavailability [14] [%] | bioavailability [15] [%] | Cmax [16] [nM] | half-life [17] [h] | Stability (Hepatocyte) | SMILES
0.0017 | 0.0062 | 4.5 | 0.388 | 0.0012 | 0.0005 | 1.28 | 0.0041 | 0.735 | 0.0012 |  |  |  |  |  |  |  |  |  | CC(C)C[C@@H](NC(=O)N1CCOCC1)C(=O)N[C@@H](/C=C/S(=O)(=O)c1ccccc1)CCc1ccccc1
 | 0.0053 | 0.17 |  | 0.01 |  |  |  |  |  | > 10 |  |  |  |  |  |  |  |  | CS(=O)(=O)C[C@H](N[C@@H](c1ccc(-c2ccc(F)cc2)cc1)C(F)(F)F)C(=O)NC1(C#N)CC1
 | 0.0003 | 7.74 |  | 0.265 |  |  |  |  |  | 0.456 |  |  |  |  |  |  |  |  | CC(C)C[C@H](N[C@@H](c1ccc(-c2ccc(S(C)(=O)=O)cc2)cc1)C(F)(F)F)C(=O)NC1(C#N)CC1
 | 0.141 | 1.98 |  | 0.0025 |  |  |  |  |  | 1.03 |  |  |  |  |  |  |  |  | CS(=O)(=O)C[C@H](N[C@@H](c1ccccc1)C(F)(F)F)C(=O)NC1(C#N)CC1
 | 0.005 | 0.417 |  | 0.08 |  |  |  |  |  | 0.456 |  |  |  |  |  |  |  |  | CSC[C@H](N[C@@H](c1ccc(Br)cc1)C(F)(F)F)C(=O)NC1(C#N)CC1
 | 0.555 | 0.287 |  | 0.0006 |  |  |  |  |  | 0.068 |  |  |  |  |  |  |  |  | N#CC1(NC(=O)[C@H](CS(=O)(=O)CC2CC2)N[C@@H](c2ccccc2)C(F)(F)F)CC1
 | 0.314 | 3.85 |  | 0.0064 |  |  |  |  |  | 0.911 |  |  |  |  |  |  |  |  | CS(=O)(=O)C[C@H](N[C@@H](c1cccc(F)c1)C(F)(F)F)C(=O)NC1(C#N)CC1
0.066 | 0.29 | 3.45 | 1.32 | 0.0003 | 0.0002 | 1.75 | 0.072 | 1.81 |  | 0.015 | 0.039 |  |  |  |  |  |  |  | N#CC1(NC(=O)[C@H](CS(=O)(=O)c2ccc(Br)cc2)N[C@@H](c2ccccc2)C(F)(F)F)CC1
 | 0.825 | 2.97 |  | 0.0013 |  |  |  |  |  | 0.114 |  |  |  |  |  |  |  |  | N#CC1(NC(=O)[C@H](CS(=O)(=O)c2nc3ccccc3s2)N[C@@H](c2ccccc2)C(F)(F)F)CC1
 | > 10 | 4.04 |  | 0.0018 |  |  |  |  |  | > 10 |  |  |  |  |  |  |  |  | N#CC1(NC(=O)[C@H](CS(=O)(=O)Cc2ccccc2-c2ccccc2)N[C@@H](c2ccc(F)cc2)C(F)(F)F)CC1
 | 0.305 | 7.28 |  | 0.0004 |  |  |  |  |  | 0.022 |  |  |  |  |  |  |  |  | N#CC1(NC(=O)[C@H](CS(=O)(=O)c2ccc(F)cc2)N[C@@H](c2ccc(F)cc2)C(F)(F)F)CC1
 | 0.691 | 4.81 |  | 0.0002 |  |  |  |  |  | 0.041 |  | 1.2 | 250 | 35 |  |  |  |  | N#CC1(NC(=O)[C@H](CS(=O)(=O)c2ccc(Cl)c(Cl)c2)N[C@@H](c2ccc(F)cc2)C(F)(F)F)CC1
0.759 | 2 | 1 | > 10 | 0.0005 | 0.0009 | 0.253 | 0.738 | 0.272 |  | 0.188 | 0.332 |  |  |  | 40 | 2800 | 3.8 |  | N#CC1(NC(=O)[C@H](CS(=O)(=O)CC2CC2)N[C@@H](c2ccc(F)cc2)C(F)(F)F)CC1
0.044 | 0.269 | 6.63 | 2.55 | 0.0002 | < 0.0002 | 4.01 | 0.132 | 4.7 |  | 0.023 | 0.09 |  |  |  |  |  |  |  | N#CC1(NC(=O)[C@H](CS(=O)(=O)c2cccc(Br)c2)N[C@@H](c2ccccc2)C(F)(F)F)CC1
 | > 10 | 1.84 |  | 0.0003 |  |  |  |  |  | 0.105 |  |  |  |  |  |  |  |  | N#CC1(NC(=O)[C@H](CS(=O)(=O)Cc2cccc(F)c2F)N[C@@H](c2ccccc2)C(F)(F)F)CC1
 | 3.06 | 0.337 |  | 0.0004 |  |  |  |  |  | 0.132 |  |  |  |  | 5 | 140 | 1.6 |  | CC(C)CS(=O)(=O)C[C@H](N[C@@H](c1ccc(F)cc1)C(F)(F)F)C(=O)NC1(C#N)CC1
1.05 | 0.031 |  | 1.03 | 0.011 | 0.0016 | 0.069 | 1.28 | 0.066 |  |  | 2.22 |  |  |  | 40 | 3300 | 11 | Stable | CS(=O)(=O)C[C@H](N[C@@H](c1ccc(Br)cc1)C(F)(F)F)C(=O)NC1(C#N)CC1
 | > 10 | 2.78 |  | 0.0005 |  |  |  |  |  | 0.086 |  |  |  |  |  |  |  |  | N#CC1(NC(=O)[C@H](CS(=O)(=O)Cc2ccc(F)cc2)N[C@@H](c2ccccc2)C(F)(F)F)CC1
0.021 | > 10 | 1.32 | > 10 | 0.0003 | 0.0008 | 0.384 | 0.399 | 0.384 |  | 0.121 | 0.662 |  |  |  | 3 | 46 | 1.2 |  | N#CC1(NC(=O)[C@H](CS(=O)(=O)Cc2cccc(F)c2F)N[C@@H](c2ccc(F)cc2)C(F)(F)F)CC1
 | 0.376 | 3.61 |  | 0.005 |  |  |  |  |  | 0.181 |  |  |  |  |  |  |  |  | N#CC1(NC(=O)[C@H](CS(=O)(=O)c2nccs2)N[C@@H](c2ccccc2)C(F)(F)F)CC1
 | > 10 | > 10 |  | 0.0007 |  |  |  |  |  | 0.249 |  |  |  |  |  |  |  |  | N#CC1(NC(=O)[C@H](CS(=O)(=O)Cc2c(F)cccc2F)N[C@@H](c2ccc(F)cc2)C(F)(F)F)CC1
 | 0.639 | 8.03 |  | 2.17 |  |  |  |  |  | > 10 |  |  |  |  |  |  |  |  | C[S+]([O-])C[C@H](N[C@@H](c1ccc(Br)cc1)C(F)(F)F)C(=O)NC1(C#N)CC1 (stereo partly drawn)
2.44 | 0.0002 |  | 0.043 |  | 0.254 | 0.54 | 0.09 | 0.925 | 4.81 |  | 0.254 |  |  |  |  |  |  |  | CC(C)C[C@H](N[C@@H](c1ccc(-c2ccc(S(C)(=O)=O)cc2)cc1)C(F)(F)F)C(=O)NCC#N
 | > 10 | > 10 |  | 0.627 |  |  |  |  |  | > 10 |  |  |  |  |  |  |  |  | CC(C)(c1ccc(F)cc1)S(=O)(=O)C[C@H](N[C@@H](c1ccc(F)cc1)C(F)(F)F)C(=O)NC1(C#N)CC1
0.015 | 0.314 | 8.51 | 1.46 | 0.0002 | < 0.0002 | 3.02 | 0.048 | 5.69 |  | 0.024 | 0.059 | 1.7 | 660 | 30 | 9 | 88 | 1.7 |  | N#CC1(NC(=O)[C@H](CS(=O)(=O)c2ccc(Cl)c(Cl)c2)N[C@@H](c2ccccc2)C(F)(F)F)CC1

Reference: ChEMBL document CHEMBL1140679, “The identification of potent, selective, and bioavailable cathepsin S inhibitors” (Bioorg Med Chem Lett, 2007)
